pIC50: −log10 of the molar value. Values after ≈ are worked out from the molar mass of the structure shown. Like-named read-outs stand apart in the source and are kept apart here.
How the values were obtained:
[1] = biological target: T1, beta-catenin/TCF4 engagement (Homo sapiens, UniProt P35222); assay: Nano-BRET target engagement assay (B-cat-Halo & TCF4-Luc in HEK293 cells); type: cell-based; conditions: read-out: NanoBRET Abs IC50
T1 construct: expressed in transfected cells; host or cells: HEK293
T1 sequence (P35222 1-781): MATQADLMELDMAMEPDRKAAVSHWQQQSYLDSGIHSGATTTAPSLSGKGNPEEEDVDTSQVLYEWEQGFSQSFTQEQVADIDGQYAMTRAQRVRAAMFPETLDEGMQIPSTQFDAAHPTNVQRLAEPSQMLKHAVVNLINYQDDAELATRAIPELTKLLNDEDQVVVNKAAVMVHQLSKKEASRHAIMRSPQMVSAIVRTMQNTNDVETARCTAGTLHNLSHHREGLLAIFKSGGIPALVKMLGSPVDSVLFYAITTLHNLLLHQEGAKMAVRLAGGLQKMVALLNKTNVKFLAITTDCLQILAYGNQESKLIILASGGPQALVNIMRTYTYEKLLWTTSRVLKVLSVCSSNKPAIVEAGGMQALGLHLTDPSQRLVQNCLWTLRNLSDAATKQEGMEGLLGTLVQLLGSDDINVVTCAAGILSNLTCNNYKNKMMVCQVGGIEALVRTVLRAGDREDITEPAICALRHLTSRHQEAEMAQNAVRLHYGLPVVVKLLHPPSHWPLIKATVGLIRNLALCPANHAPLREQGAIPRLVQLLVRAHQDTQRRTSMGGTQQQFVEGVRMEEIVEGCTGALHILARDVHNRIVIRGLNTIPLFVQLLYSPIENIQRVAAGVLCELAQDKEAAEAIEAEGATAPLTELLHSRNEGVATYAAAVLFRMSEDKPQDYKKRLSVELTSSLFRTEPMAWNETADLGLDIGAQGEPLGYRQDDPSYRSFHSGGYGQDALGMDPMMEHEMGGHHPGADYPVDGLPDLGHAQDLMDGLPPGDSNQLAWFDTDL

Solubility in PBS = type: physicochemical
In short: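 Steps: ultracentrifuge the peptide PBS solution, inject the supernatant on HPLC, inject a 50 μM peptide DMSO solution as reference, then calculate solubility as area ratio (PBS/DMSO) × 50 uM.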

[2] = biological target: T2, full-length beta-Catenin (Uniprot ID P35222) (Homo sapiens, UniProt P35222); assay: Fluorescence polarization IC50 (beta-catenin / 5FAM-TCF4 10-53 competition); type: binding
T2 construct: 10 nM full-length beta-Catenin (Uniprot ID P35222)
T2 sequence (P35222 1-781): T1 sequence (P35222 1-781)

CHI Log D procedure = type: physicochemical; conditions: for chromatographic logD: pH 7.4, CHI Log D; for CHI Log D: pH 7.4
[3] = fluorescence polarization, read-out: beta-Catenin FP IC50

| SMILES | pIC50 ([1]; absolute IC50) | Solubility (Solubility in PBS; Solubility (uM)) | pIC50 [2, 3] | chromatographic logD (CHI Log D procedure) | pIC50 ([2]; read-out: beta-Catenin FP IC50) | pIC50 [1] | Solubility (Solubility in PBS) | pIC50 ([2]; read-out: FP EC50) | CHI Log D (CHI Log D procedure) |
| --- | --- | --- | --- | --- | --- | --- | --- | --- | --- |
| CC(=O)N1CCC[C@]12CC=CCCCC1(CCCC=CCCCOC(=O)N3CC[C@@](C(=O)N[C@@H](Cc4ccccc4)C(=O)N[C@@H](Cc4csc5ccccc45)C(=O)N[C@@H](CCC(N)=O)C(N)=O)(C3)NC(=O)[C@H](CC(N)=O)NC(=O)[C@H](Cc3ccccc3)NC(=O)[C@H](C)NC(=O)[C@H](C)NC(=O)[C@H](CCC(=O)O)NC(=O)[C@H](CC(=O)O)NC1=O)NC(=O)[C@H](C)NC(=O)[C@H](CC(=O)O)NC2=O (stereo partly drawn) [I-462, Ac-PL3-Asp-Ala-B5-Asp-Glu-Ala-Ala-Phe-Asn-PyrS2-Phe-BztA-Gln-NH2] | < 4.70 | 49 µM (≈ 91.6 µg/mL) | 7.55 | 1.76 |  |  |  |  |  |
| CC(=O)N1CCC[C@]12CC=CCCCC1(CCCC=CCCCOC(=O)N3CC[C@@](C(=O)N[C@@H](CC4CCCCC4)C(=O)N[C@@H](Cc4csc5ccccc45)C(=O)N[C@@H](CO)C(N)=O)(C3)NC(=O)[C@H](CO)NC(=O)[C@H](Cc3ccccc3)NC(=O)[C@H](C)NC(=O)[C@H](C)NC(=O)[C@H](CC(=O)O)NC(=O)[C@H](CC(=O)O)NC1=O)NC(=O)[C@H](CC(C)(C)C)NC(=O)[C@H](CC(=O)O)NC2=O (stereo partly drawn) [I-1106, Ac-PL3-Asp-Npg-B5-Asp-Asp-Ala-Ala-Phe-Ser-PyrS2-Cha-BztA-Ser-NH2] | < 4.70 | 47 µM (≈ 87 µg/mL) |  | 2.44 | 7.64 |  |  |  |  |
| CC(=O)N1CCC[C@]12CC=CCCCC1(CCCC=CCCCOC(=O)N3CC[C@@](C(=O)N[C@@H](Cc4ccccc4Cl)C(=O)N[C@@H](Cc4csc5ccccc45)C(=O)N[C@@H](CCC(N)=O)C(N)=O)(C3)NC(=O)[C@H](CO)NC(=O)[C@H](Cc3cccc(C(F)(F)F)c3)NC(=O)[C@H](C)NC(=O)[C@H](C)NC(=O)[C@H](CC(=O)O)NC(=O)[C@H](CC(=O)O)NC1=O)NC(=O)[C@H](CC1CCCCC1)NC(=O)[C@H](CC(=O)O)NC2=O (stereo partly drawn) [I-1119, Ac-PL3-Asp-Cha-B5-Asp-Asp-Ala-Ala-3F3MeF-Ser-PyrS2-2C1F-BztA-Gln-NH2] |  | 31 µM (≈ 62.4 µg/mL) |  | 2.51 | 7.59 | 4.71 |  |  |  |
| CC(=O)N1CCC[C@]12CC=CCCCC1(CCCC=CCCCOC(=O)N3CC[C@@](C(=O)N[C@@H](Cc4ccccc4)C(=O)N[C@@H](Cc4csc5ccccc45)C(=O)N[C@@H](Cc4c[nH]cn4)C(N)=O)(C3)NC(=O)[C@H](CC(N)=O)NC(=O)[C@H](Cc3ccccc3)NC(=O)[C@H](C)NC(=O)[C@H](C)NC(=O)[C@H](CCC(=O)O)NC(=O)[C@H](CC(=O)O)NC1=O)NC(=O)[C@H](CC(C)(C)C)NC(=O)[C@H](CC(=O)O)NC2=O (stereo partly drawn) [I-693, Ac-PL3-Asp-Npg-B5-Asp-Glu-Ala-Ala-Phe-Asn-PyrS2-Phe-BztA-His-NH2] | 4.55 |  | 7.92 |  |  |  | 34 µM (≈ 65.8 µg/mL) | 7.92 | 2.184 |
| CC(=O)N1CCC[C@]12CC=CCCCC1(CCCC=CCCCOC(=O)N3CC[C@@](C(=O)N[C@@H](Cc4ccsc4)C(=O)N[C@@H](Cc4csc5ccccc45)C(=O)N[C@@H](CCC(N)=O)C(N)=O)(C3)NC(=O)[C@H](CC(N)=O)NC(=O)[C@H](Cc3ccccc3)NC(=O)[C@H](C)NC(=O)[C@H](C)NC(=O)[C@H](CCC(=O)O)NC(=O)[C@H](CC(=O)O)NC1=O)NC(=O)[C@H](CC(C)(C)C)NC(=O)[C@H](CC(=O)O)NC2=O (stereo partly drawn) [I-690, Ac-PL3-Asp-Npg-B5-Asp-Glu-Ala-Ala-Phe-Asn-PyrS2-3Thi-BztA-Gln-NH2] | 4.75 |  | 8.15 |  |  |  | 44 µM (≈ 85 µg/mL) | 8.15 | 2.013 |
| CC(=O)N1CCC[C@]12CC=CCCCC1(CCCC=CCCCOC(=O)N3CC[C@@](C(=O)N[C@@H](Cc4ccsc4)C(=O)N[C@@H](Cc4csc5ccccc45)C(=O)N[C@@H](CCC(N)=O)C(N)=O)(C3)NC(=O)[C@H](CC(N)=O)NC(=O)[C@H](Cc3ccccc3)NC(=O)[C@H](CCCCNC(=O)CN3CCOCC3)NC(=O)[C@H](C)NC(=O)[C@H](CC(=O)O)NC(=O)[C@H](CC(=O)O)NC1=O)NC(=O)[C@H](CC(C)(C)C)NC(=O)[C@H](CC(=O)O)NC2=O (stereo partly drawn) [I-886, Ac-PL3-Asp-Npg-B5-Asp-Asp-Ala-[MorphAc]Lys-Phe-Asn-PyrS2-3Thi-BztA-Gln-NH2] |  | 43 µM (≈ 90.4 µg/mL) |  | 1.51 | 7.66 | < 4.70 |  |  |  |

Continued by rising pIC50 ([2]; read-out: beta-Catenin FP IC50), values first:

| pIC50 ([1]; absolute IC50) | Solubility (Solubility in PBS; Solubility (uM)) | pIC50 [2, 3] | chromatographic logD (CHI Log D procedure) | pIC50 ([2]; read-out: beta-Catenin FP IC50) | pIC50 [1] | Solubility (Solubility in PBS) | pIC50 ([2]; read-out: FP EC50) | CHI Log D (CHI Log D procedure) | SMILES |
| --- | --- | --- | --- | --- | --- | --- | --- | --- | --- |
|  | 28 µM (≈ 55 µg/mL) |  | 2.49 | 7.70 | < 4.70 |  |  |  | CC(=O)N1CCC[C@]12CC=CCCCC1(CCCC=CCCCOC(=O)N3CC[C@@](C(=O)N[C@@H](Cc4ccccc4Cl)C(=O)N[C@@H](Cc4csc5ccccc45)C(=O)N[C@@H](CO)C(N)=O)(C3)NC(=O)[C@H]([C@@H](C)O)NC(=O)[C@H](Cc3ccccc3)NC(=O)[C@H](C)NC(=O)[C@H](C)NC(=O)[C@H](CC(=O)O)NC(=O)[C@H](CC(=O)O)NC1=O)NC(=O)[C@H](Cc1cccc3ccccc13)NC(=O)[C@H](CC(=O)O)NC2=O (stereo partly drawn) [I-1114, Ac-PL3-Asp-1NapA-B5-Asp-Asp-Ala-Ala-Phe-Thr-PyrS2-2C1F-BztA-Ser-NH2] |
|  |  |  | 2.38 | 7.72 | 4.84 | 10 µM (≈ 19.3 µg/mL) |  |  | CC(=O)N1CCC[C@]12CC=CCCCC1(CCCC=CCCCOC(=O)N3CC[C@@](C(=O)N[C@@H](Cc4ccccc4Cl)C(=O)N[C@@H](Cc4csc5ccccc45)C(=O)N[C@@H](CCC(N)=O)C(N)=O)(C3)NC(=O)[C@H]([C@@H](C)O)NC(=O)[C@H](Cc3ccccc3)NC(=O)[C@H](C)NC(=O)[C@H](C)NC(=O)[C@H](CC(N)=O)NC(=O)[C@H](CC(=O)O)NC1=O)NC(=O)[C@H](CC(C)(C)C)NC(=O)[C@H](CC(=O)O)NC2=O (stereo partly drawn) [I-1014, Ac-PL3-Asp-Npg-B5-Asp-Asn-Ala-Ala-Phe-Thr-PyrS2-2C1F-BztA-Gln-NH2] |
|  | 48 µM (≈ 89.4 µg/mL) |  | 2.22 | 7.85 | 4.57 |  |  |  | CC(=O)N1CCC[C@]12CC=CCCCC1(CCCC=CCCCOC(=O)N3CC[C@@](C(=O)N[C@@H](Cc4ccccc4F)C(=O)N[C@@H](Cc4csc5ccccc45)C(=O)N[C@@H](CO)C(N)=O)(C3)NC(=O)[C@H](CO)NC(=O)[C@H](Cc3ccccc3)NC(=O)[C@H](C)NC(=O)[C@H](C)NC(=O)[C@H](CC(=O)O)NC(=O)[C@H](CC(=O)O)NC1=O)NC(=O)[C@H](CC(C)(C)C)NC(=O)[C@H](CC(=O)O)NC2=O (stereo partly drawn) [I-1101, Ac-PL3-Asp-Npg-B5-Asp-Asp-Ala-Ala-Phe-Ser-PyrS2-2FF-BztA-Ser-NH2] |
|  | 44 µM (≈ 84.2 µg/mL) |  | 2.11 | 8.30 | 4.87 |  |  |  | CC(=O)N1CCC[C@]12CC=CCCCC1(CCCC=CCCCOC(=O)N3CC[C@@](C(=O)N[C@@H](Cc4ccsc4)C(=O)N[C@@H](Cc4csc5ccccc45)C(=O)N[C@@H](Cc4c[nH]cn4)C(N)=O)(C3)NC(=O)[C@H](CCO)NC(=O)[C@H](Cc3ccccc3)NC(=O)[C@H](C)NC(=O)[C@H](C)NC(=O)[C@H](CC(=O)O)NC(=O)[C@H](CC(=O)O)NC1=O)NC(=O)[C@H](CC(C)(C)C)NC(=O)[C@H](CC(=O)O)NC2=O (stereo partly drawn) [I-804, Ac-PL3-Asp-Npg-B5-Asp-Asp-Ala-Ala-Phe-Hse-PyrS2-3Thi-BztA-His-NH2] |

— US20240116985A1, “STAPLED PEPTIDES AND METHODS THEREOF” (priority 2020, published 2024)
